Assay results as given in patent US10092570B2 (Incyte Corporation, priority 2011, dated 2018).
pIC50: −log10 of the molar value.

What follows are compounds tested on Pfeiffer cell line (diffuse large B cell lymphoma) (assay: Example B2: Pfeiffer cell proliferation assay). Details: Homo sapiens, Pfeiffer, Pfeiffer cells, [3H]-thymidine incorporation.
Type: cell-based
Protocol: Pfeiffer cell line (diffuse large B cell lymphoma) are purchased from ATCC (Manassas, Va.) and maintained in the culture medium recommended (RPMI and 10% FBS). To measure the anti-proliferation activity of the compounds, the Pfeiffer cells are plated with the culture medium (2×10^3 cells/well/per 200 μl) into 96-well ultra-low binding plates (Corning, Corning, N.Y.), in the presence or absence of a concentration range of test compounds. After 3-4 days, [^3H]-thymidine (1 μCi/well) (PerkinElmer, Boston, Mass.) in PBS is then added to the cell culture for an additional 12 hours before the incorporated radioactivity is separated by filtration with water through GF/B filters (Packard Bioscience, Meridenj, Conn.) and measured by liquid scintillation counting with a TopCount (Packard Bioscience).
`CCOc1c(C(C)n2nc(C)c3c(N)ncnc32)cc(Cl)c(F)c1C1CN(CC(C)(C)O)C1` (racemic) [Example 140, 1-(3-{3-[1-(4-Amino-3-methyl-1H-pyrazolo[3,4-d]pyrimidin-1-yl)ethyl]-5-chloro-2-ethoxy-6-fluorophenyl}azetidin-1-yl)-2-methylpropan-2-ol] was tested, and the pIC50 was greater than 8.00.
`COc1c(C(C)n2nc(C)c3c(N)ncnc32)cc(Cl)c(C)c1-c1cncc(C(=O)N2CC(C#N)C2)c1` (single isomer, unassigned) [Example 177, 1-[(5-{3-[1-(4-amino-3-methyl-1H-pyrazolo[3,4-d]pyrimidin-1-yl)ethyl]-5-chloro-2-methoxy-6-methylphenyl}pyridin-3-yl)carbonyl]azetidine-3-carbonitrile] showed a pIC50 greater than 8.00.
`CCOc1c(C(C)n2nc(C)c3c(N)ncnc32)cc(Cl)c(C)c1-c1cncc(C(=O)N(C)C)c1` (single isomer, unassigned) [Example 196, 5-(3-(1-(4-amino-3-methyl-1H-pyrazolo[3,4-d]pyrimidin-1-yl)ethyl)-5-chloro-2-ethoxy-6-methylphenyl)-N,N-dimethylnicotinamide] was tested, and the pIC50 was greater than 8.00.
`CCOc1c(C(C)n2nc(C)c3c(N)ncnc32)cc(Cl)c(C)c1-c1cncc(S(C)(=O)=O)c1` (single isomer, unassigned) [Example 198] showed a pIC50 greater than 8.00.
Compound `CCOc1c(C(C)n2nc(C)c3c(N)ncnc32)cc(Cl)c(C#N)c1C1CN(CC)C1` (single isomer, unassigned) [Example 214, 4-[1-(4-Amino-3-methyl-1H-pyrazolo[3,4-d]pyrimidin-1-yl)ethyl]-6-chloro-3-ethoxy-2-(1-ethylazetidin-3-yl)benzonitrile] has a pIC50 greater than 8.00.
`CCOc1c(C(C)n2nc(C)c3c(N)ncnc32)cc(Cl)c(C#N)c1C1CN(C(C)C)C1` (single isomer, unassigned) [Example 215, 4-[1-(4-Amino-3-methyl-1H-pyrazolo[3,4-d]pyrimidin-1-yl)ethyl]-6-chloro-3-ethoxy-2-(1-isopropylazetidin-3-yl)benzonitrile] showed a pIC50 greater than 8.00.
Compound `CCOc1c(C(C)n2nc(C)c3c(N)ncnc32)cc(Cl)c(C#N)c1C1CN(CC(C)(C)O)C1` (single isomer, unassigned) [Example 222, 4-[1-(4-Amino-3-methyl-1H-pyrazolo[3,4-d]pyrimidin-1-yl)ethyl]-6-chloro-3-ethoxy-2-[1-(2-hydroxy-2-methylpropyl)azetidin-3-yl]benzonitrile] has a pIC50 greater than 8.00.
In the case of `CCOc1c(C(C)n2nc(C)c3c(N)ncnc32)cc(Cl)c(C#N)c1C1CN(S(C)(=O)=O)C1` (single isomer, unassigned) [Example 248, 4-[1-(4-Amino-3-methyl-1H-pyrazolo[3,4-d]pyrimidin-1-yl)ethyl]-6-chloro-3-ethoxy-2-[1-(methylsulfonyl)azetidin-3-yl]benzonitrile], the pIC50 was greater than 8.00.
`CCOc1c(C(C)n2nc(C)c3c(N)ncnc32)cc(Cl)c(C#N)c1C1CN(C(=O)NC)C1` (single isomer, unassigned) [Example 257, 3-{3-[1-(4-Amino-3-methyl-1H-pyrazolo[3,4-d]pyrimidin-1-yl)ethyl]-5-chloro-6-cyano-2-ethoxyphenyl}-N-methylazetidine-1-carboxamide] was tested, and the pIC50 was greater than 8.00.
Compound `COc1c(C(C)n2nc(C)c3c(N)ncnc32)cc(Cl)c(C#N)c1C1CN(C(C)C)C1` (single isomer, unassigned) [Example 264, 4-[1-(4-Amino-3-methyl-1H-pyrazolo[3,4-d]pyrimidin-1-yl)ethyl]-6-chloro-2-(1-isopropylazetidin-3-yl)-3-methoxybenzonitrile] has a pIC50 greater than 8.00.
Compound `COc1c(C(C)n2nc(C)c3c(N)ncnc32)cc(Cl)c(C#N)c1C1CN(CC(C)(C)O)C1` (single isomer, unassigned) [Example 271, 4-[1-(4-Amino-3-methyl-1H-pyrazolo[3,4-d]pyrimidin-1-yl)ethyl]-6-chloro-2-[1-(2-hydroxy-2-methylpropyl)azetidin-3-yl]-3-methoxybenzonitrile] has a pIC50 greater than 8.00.
`COc1c(C(C)n2nc(C)c3c(N)ncnc32)cc(Cl)c(Cl)c1C1CN(CCO)C1` (single isomer, unassigned) [Example 300, 2-(3-{3-[1-(4-Amino-3-methyl-1H-pyrazolo[3,4-d]pyrimidin-1-yl)ethyl]-5,6-dichloro-2-methoxyphenyl}azetidin-1-yl)ethano] showed a pIC50 greater than 8.00.
`COc1c(C(C)n2nc(C)c3c(N)ncnc32)cc(Cl)c(Cl)c1C1CN(CC(C)(C)O)C1` (single isomer, unassigned) [Example 303, 1-(3-{3-[1-(4-Amino-3-methyl-1H-pyrazolo[3,4-d]pyrimidin-1-yl)ethyl]-5,6-dichloro-2-methoxyphenyl}azetidin-1-yl)-2-methylpropan-2-ol] showed a pIC50 greater than 8.00.
`CCOc1c(C(C)n2nc(C)c3c(N)ncnc32)cc(Cl)c(F)c1C1CNC(=O)C1` (single isomer, unassigned) [Example 346, 4-{3-[1-(4-amino-3-methyl-1H-pyrazolo[3,4-d]pyrimidin-1-yl)ethyl]-5-chloro-2-ethoxy-6-fluorophenyl}pyrrolidin-2-one] gave a pIC50 greater than 8.00.
For `CCOc1c(C(C)n2nc(C)c3c(N)ncnc32)cc(Cl)c(C#N)c1C1CNC(=O)C1` (single isomer, unassigned) [Example 349, 4-[1-(4-amino-3-methyl-1H-pyrazolo[3,4-d]pyrimidin-1-yl)ethyl]-6-chloro-3-ethoxy-2-(5-oxopyrrolidin-3-yl)benzonitrile], the pIC50 was greater than 8.00.
`CCOc1c(C(C)n2nc(C)c3c(N)ncnc32)cc(Cl)c(F)c1C1COC(=O)N1` (single isomer, unassigned) [Example 354, 4-{3-[1-(4-amino-3-methyl-1H-pyrazolo[3,4-d]pyrimidin-1-yl)ethyl]-5-chloro-2-ethoxy-6-fluorophenyl}-1,3-oxazolidin-2-one] showed a pIC50 greater than 8.00.
Work on `COc1c(C(C)n2nc(C)c3c(N)ncnc32)cc(Cl)c(F)c1C1CN(C(C)C)C1` (stereo not drawn) [67 (1st peak), 1-{1-[5-Chloro-4-fluoro-3-(1-isopropylazetidin-3-yl)-2-methoxyphenyl]ethyl}-3-methyl-1H-pyrazolo[3,4-d]pyrimidin-4-amine] yielded a pIC50 greater than 8.00.
`CCOc1c(C(C)n2nc(C)c3c(N)ncnc32)cc(Cl)c(F)c1C1CN(C[C@H](C)O)C1` (stereo partly drawn) [Example 149, (2S)-1-(3-{3-[1-(4-Amino-3-methyl-1H-pyrazolo[3,4-d]pyrimidin-1-yl)ethyl]-5-chloro-2-ethoxy-6-fluorophenyl}azetidin-1-yl)propan-2-ol] was tested, and the pIC50 was greater than 8.00.
In the case of `COc1c(C(C)n2nc(C)c3c(N)ncnc32)cc(Cl)c(C)c1-c1ccc(C(=O)N(C)C)nc1` (stereo not drawn) [Example 167, 5-(3-(1-(4-Amino-3-methyl-1H-pyrazolo[3,4-d]pyrimidin-1-yl)ethyl)-5-chloro-2-methoxy-6-methylphenyl)-N,N-dimethylpicolinamide bis(2,2,2-trifluoroacetate)], the pIC50 was greater than 8.00.
`COc1c(C(C)n2nc(C(F)F)c3c(N)ncnc32)cc(Cl)c(C)c1-c1ccc(C(=O)N(C)C)nc1` (stereo not drawn) [Example 191, 5-(3-{1-[4-Amino-3-(difluoromethyl)-1H-pyrazolo[3,4-d]pyrimidin-1-yl]ethyl}-5-chloro-2-methoxy-6-methylphenyl)-N,N-dimethylpyridine-2-carboxamide] showed a pIC50 greater than 8.00.
`CCOc1c(C(C)n2nc(C)c3c(N)ncnc32)cc(Cl)c(C)c1-c1ccc(C(=O)N(C)C)nc1` (stereo not drawn) [Example 195, 5-(3-(1-(4-Amino-3-methyl-1H-pyrazolo[3,4-d]pyrimidin-1-yl)ethyl)-5-chloro-2-ethoxy-6-methylphenyl)-N,N-dimethylpicolinamide bis(2,2,2-trifluoroacetate)] gave a pIC50 greater than 8.00.
With `COc1c(C(C)n2nc(C)c3c(N)ncnc32)cc(Cl)c(C)c1-c1ccnc(C(=O)N(C)C)c1` (stereo not drawn) [Example 200, 4-(3-(1-(4-Amino-3-methyl-1H-pyrazolo[3,4-d]pyrimidin-1-yl)ethyl)-5-chloro-2-methoxy-6-methylphenyl)-N,N-dimethylpicolinamide bis(2,2,2-trifluoroacetate)] the pIC50 was greater than 8.00.
`CCOc1c(C(C)n2nc(C)c3c(N)ncnc32)cc(Cl)c(C#N)c1C1CN(CCO)C1` (stereo not drawn) [Example 219, 4-[1-(4-Amino-3-methyl-1H-pyrazolo[3,4-d]pyrimidin-1-yl)ethyl]-6-chloro-3-ethoxy-2-[1-(2-hydroxyethyl)azetidin-3-yl]benzonitrile] was tested, and the pIC50 was greater than 8.00.
In the case of `COc1c(C(C)n2nc(C)c3c(N)ncnc32)cc(Cl)c(C#N)c1-c1ccc(C(=O)N(C)C)nc1` (stereo not drawn) [Example 313, 5-{3-[1-(4-amino-3-methyl-1H-pyrazolo[3,4-d]pyrimidin-1-yl)ethyl]-5-chloro-6-cyano-2-methoxyphenyl}-N,N-dimethylpyridine-2-carboxamide], the pIC50 was greater than 8.00.
`CCOc1c(C(C)n2nc(C)c3c(N)ncnc32)cc(C)c(C#N)c1-c1ccc(C(=O)N(C)C)nc1` (stereo not drawn) [Example 314, 5-{3-[1-(4-amino-3-methyl-1H-pyrazolo[3,4-d]pyrimidin-1-yl)ethyl]-6-cyano-2-ethoxy-5-methylphenyl}-N,N-dimethylpyridine-2-carboxamide] was tested, and the pIC50 was greater than 8.00.

Same assay, conditions: Pfeiffer cells, [3H]-thymidine incorporation
With `CCOc1c(C(C)n2nc(C)c3c(N)ncnc32)cc(Cl)c(F)c1C1CNC(=O)C1` (single isomer, unassigned) [Example 347, 4-{3-[1-(4-amino-3-methyl-1H-pyrazolo[3,4-d]pyrimidin-1-yl)ethyl]-5-chloro-2-ethoxy-6-fluorophenyl}pyrrolidin-2-one] the pIC50 was greater than 8.00.

Each compound was assayed against PI3Kδ (p110δ/p85α) (Homo sapiens (Human), UniProt O00329) (assay: Example A3: PI3Kδ scintillation proximity assay). Details: scintillation proximity assay, 20 μM ATP, 4 nM PI3Kδ; read-out: PI3Kδ SPA IC50.
Sequence of PI3Kδ (p110δ/p85α) (O00329 whole entry): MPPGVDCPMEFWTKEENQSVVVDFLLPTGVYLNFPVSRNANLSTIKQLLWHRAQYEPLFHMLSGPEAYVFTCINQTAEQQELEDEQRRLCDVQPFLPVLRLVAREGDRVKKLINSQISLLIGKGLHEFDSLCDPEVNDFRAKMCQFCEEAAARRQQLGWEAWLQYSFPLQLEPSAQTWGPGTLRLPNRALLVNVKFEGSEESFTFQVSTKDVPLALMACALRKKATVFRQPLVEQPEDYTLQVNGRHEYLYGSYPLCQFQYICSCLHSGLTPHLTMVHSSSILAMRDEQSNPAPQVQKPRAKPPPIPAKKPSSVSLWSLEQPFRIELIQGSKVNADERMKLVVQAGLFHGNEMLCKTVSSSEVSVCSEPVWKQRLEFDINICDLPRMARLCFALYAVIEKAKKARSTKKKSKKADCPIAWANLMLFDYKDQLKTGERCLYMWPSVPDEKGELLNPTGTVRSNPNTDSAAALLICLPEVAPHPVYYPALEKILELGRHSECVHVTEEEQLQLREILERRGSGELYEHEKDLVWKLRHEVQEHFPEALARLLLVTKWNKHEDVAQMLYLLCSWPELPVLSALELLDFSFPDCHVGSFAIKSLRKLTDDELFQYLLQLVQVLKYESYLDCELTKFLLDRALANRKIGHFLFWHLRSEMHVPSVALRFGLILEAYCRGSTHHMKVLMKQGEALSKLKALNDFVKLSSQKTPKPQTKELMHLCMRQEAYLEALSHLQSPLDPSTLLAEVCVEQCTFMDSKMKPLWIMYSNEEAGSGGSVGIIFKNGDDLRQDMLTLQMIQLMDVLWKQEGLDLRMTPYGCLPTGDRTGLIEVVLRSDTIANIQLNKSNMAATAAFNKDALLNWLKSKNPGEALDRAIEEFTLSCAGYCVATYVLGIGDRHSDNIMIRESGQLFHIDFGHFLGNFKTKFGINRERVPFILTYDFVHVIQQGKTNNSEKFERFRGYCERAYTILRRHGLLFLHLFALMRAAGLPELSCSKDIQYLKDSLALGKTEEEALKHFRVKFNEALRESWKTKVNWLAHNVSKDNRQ
Sequence of PI3Kδ (p110δ/p85α) (P27986 whole entry partner): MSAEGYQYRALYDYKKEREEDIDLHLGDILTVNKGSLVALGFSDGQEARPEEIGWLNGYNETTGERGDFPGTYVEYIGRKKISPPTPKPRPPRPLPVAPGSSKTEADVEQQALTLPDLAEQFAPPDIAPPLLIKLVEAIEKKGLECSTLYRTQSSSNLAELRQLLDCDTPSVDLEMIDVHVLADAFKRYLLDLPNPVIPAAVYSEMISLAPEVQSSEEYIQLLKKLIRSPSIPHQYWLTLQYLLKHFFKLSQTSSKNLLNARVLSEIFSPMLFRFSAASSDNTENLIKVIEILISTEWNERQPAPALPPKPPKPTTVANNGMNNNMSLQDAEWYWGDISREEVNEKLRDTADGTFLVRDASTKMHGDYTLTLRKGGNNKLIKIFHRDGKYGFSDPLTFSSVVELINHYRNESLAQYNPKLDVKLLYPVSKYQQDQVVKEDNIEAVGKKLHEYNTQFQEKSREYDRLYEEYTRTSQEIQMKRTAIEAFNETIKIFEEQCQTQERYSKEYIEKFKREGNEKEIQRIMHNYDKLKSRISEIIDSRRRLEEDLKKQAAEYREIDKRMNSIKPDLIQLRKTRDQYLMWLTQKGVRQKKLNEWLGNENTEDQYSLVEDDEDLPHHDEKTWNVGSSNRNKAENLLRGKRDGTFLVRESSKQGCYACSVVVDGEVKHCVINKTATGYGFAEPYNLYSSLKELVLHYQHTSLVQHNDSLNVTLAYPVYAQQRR
Type: biochemical
In short: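 p110δ/p85α (4 nM) phosphorylated 20 μM PIP2 with 20 μM ATP plus [γ-33P]ATP in MOPS pH 6.7, MgCl2, DTT, CHAPS, 0.5% DMSO, at RT. Stopped with EDTA/excess ATP, product captured on WGA SPA beads overnight and counted; IC50 from percent control activity versus log inhibitor.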
`CCOc1c(C(C)n2nc(C)c3c(N)ncnc32)cc(Cl)c(F)c1C1CN(CC(C)(C)O)C1` (racemic) [Example 140, 1-(3-{3-[1-(4-Amino-3-methyl-1H-pyrazolo[3,4-d]pyrimidin-1-yl)ethyl]-5-chloro-2-ethoxy-6-fluorophenyl}azetidin-1-yl)-2-methylpropan-2-ol] showed a pIC50 greater than 8.00.
